Reference: patent US7671055B2, “Insecticidal 3-(dihaloalkenyl) phenyl derivatives” (FMC Corporation, priority 2004, dated 2010)

Test system: tobacco budworm (Heliothis virescens [Fabricius])
Assay: surface-treated diet test against tobacco budworm
Type: in vivo
Conditions: 0.25 millimolar on surface of diet; second instar larvae; five-day exposure; inhibition of insect weight relative to untreated controls
Procedure: Candidate insecticides were evaluated for activity against the tobacco budworm (Heliothis virescens [Fabricius]) in a surface-treated diet test.
In this test one mL of molten (65-70° C.) wheat germ-based artificial diet was pipetted into each well of a four by six (24 well) multi-well plate (ID#430345-15—[…].×17.6 mm deep; Corning Costar Corp., One Alewife Center, Cambridge, Mass. 02140). The diet was allowed to cool to ambient temperature before treatment with candidate insecticide.
For a determination of insecticidal activity, solutions of the candidate insecticides were prepared for testing using a Packard 204DT Multiprobe® Robotic System (Packard Instrument Company, 800 Research Parkway, Meriden, Conn. 06450), in which the robot first diluted a standard 50 millimolar DMSO solution of candidate insecticide with a 1:1 water/acetone solution (V/V) in a ratio of 1:7 stock solution to water/acetone. The robot subsequently pipetted 40 microliters of the so-prepared solution onto the surface of the diet in each of three wells in the 24 multi-well plate. The process was repeated with solutions of seven other candidate insecticides. […]
After the five-day exposure period insecticidal activity for each rate of application of candidate insecticide was assessed as percent inhibition of insect weight relative to the weight of insects from untreated controls. […]

Row | SMILES | Percent Growth Inhibition [%]
1 | CC1(C)Cc2cccc(OCCCCOc3cc(OCC=C(Cl)Cl)cc(Cl)c3Cl)c2O1 [Compound 2, 7-{4-[5-(3,3-dichloroprop-2-enyloxy)-2,3-dichlorophenoxy]butoxy}-2,2-dimethyl-2,3-dihydro-benzo[b]furan] | 100
2 | FC(F)(F)c1ccc(N2CCN(c3cc(OCC=C(Cl)Cl)cc(Cl)c3Br)CC2)nc1 [Compound 19, 5-(3,3-dichloroprop-2-enyloxy)-2-bromo-3-chloro-1-{4-[5-(trifluoromethyl)(2-pyridyl)]piperazinyl}-benzene] | 100
